12 compounds from US20240148821A1, “PHARMACEUTICAL USE OF CYCLIC PEPTIDE COMPOUND” (CHUGAI SEIYAKU KABUSHIKI KAISHA, priority 2021, published 2024) can be followed below.

Numbered stars: 1 amine (or outer) side, 2 acyl side, 3 side chain; on linkers, the order of the positions; unused ones are H or OH. Bridge positions count the residues as written; N and C are the ends. Square brackets hold non-standard residues; d marks the D form. Peptide text beside a SMILES is read from it. * marks the point of attachment. hPhe(3-Cl-4-CF3) = N[C@@H](CCc1ccc(C(F)(F)F)c(Cl)c1)C(=O)O; NMePhe(4-CF3) = CN[C@@H](Cc1ccc(C(F)(F)F)cc1)C(=O)O; NEtPhe(2-Cl) = CCN[C@@H](Cc1ccccc1Cl)C(=O)O; NMePhe(4-Me) = CN[C@@H](Cc1ccc(C)cc1)C(=O)O; NMePhe(4-I) = CN[C@@H](Cc1ccc(I)cc1)C(=O)O; NMedβ3hAla = C[C@H](CC(=O)[*:2])N(C)[*:1]; NMeGly(cPent) = CN[C@H](C(=O)O)C1CCCC1; NMeCha = CN[C@@H](CC1CCCCC1)C(=O)O; NMehLeu = CN[C@@H](CCC(C)C)C(=O)O; NMeChg = CN[C@H](C(=O)O)C1CCCCC1; NMeD = CN[C@@H](CC(=O)O)C(=O)O; NMeHpra = C#CCC[C@H](NC)C(=O)O; NMeL = CN[C@@H](CC(C)C)C(=O)O; NMeNva = CCC[C@H](NC)C(=O)O; NMeV = CN[C@H](C(=O)O)C(C)C; d(β3hA) = C[C@@H](N)CC(=O)O; NMeS = CN[C@@H](CO)C(=O)O; Morpholide = C1CN(*)CCO1; NMeA = CN[C@@H](C)C(=O)O; NMeAib = CNC(C)(C)C(=O)O; Piperidide = C1CCN(*)CC1; Pyrrolidide = C1CCN(*)C1; dNMeA = CN[C@H](C)C(=O)O; Ac5c = NC1(C(=O)O)CCCC1; Aze = O=C(O)[C@@H]1CCN1; Sar = CNCC(=O)O; Propyl = CCC*

For one assay, the target named is protein-protein interaction between Kras and SOS1 (biotin-tagged human Kras loaded with GDP, His-tagged human SOS1) (Homo sapiens (Human), UniProt P01116, G12D). The assay is described as follows: Protein-protein interaction inhibition between Kras and SOS1 (KrasG12D-SOS PPI) using AlphaScreen.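 Further: kras produced in E. coli, Ni-coupled donor beads and streptavidin acceptor beads, excitation 680 nm with emission detected at 520–620 nm via singlet oxygen transfer.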 It is filed as biochemical.
Conditions: not given
A general note: Alpha assays give light when donor and acceptor beads are brought close together.
Regarding `CC[C@H](C)[C@@H]1NC(=O)[C@H](CC(C)C)N(C)C(=O)C[C@@H](C(=O)N(C)C)N(C)C(=O)[C@H](C2CCCC2)N(C)C(=O)C2(CCCC2)NC(=O)[C@H](CC(=O)N2CCCC2)N(C)C(=O)[C@H](CCc2ccc(C(F)(F)F)c(Cl)c2)NC(=O)CN(C)C(=O)[C@H](CC2CCCCC2)N(C)C(=O)[C@@H]2CCN2C(=O)[C@H](C)N(C)C1=O` [Compound 2097] ([NMeL]I[NMeA][Aze][NMeCha][Sar][hPhe(3-Cl-4-CF3)][NMeD](Pyrrolidide)[Ac5c][NMeGly(cPent)][NMeD]-NMe2; lactam N-11), half-maximal inhibition (IC50) required 0.57 nM.

Still in this assay, the particulars now being: AlphaScreen; biotin-tagged human Kras loaded with GDP, His-tagged human SOS1; read-out: KRAS G12D-SOS PPI IC50.
As to `CC[C@H](C)[C@@H]1NC(=O)[C@H](C)N(C)C(=O)C[C@@H](C(=O)N2CCCCC2)N(C)C(=O)[C@H](C(C)C)N(C)C(=O)C2(CCCC2)NC(=O)[C@H](Cc2ccccc2Cl)N(CC)C(=O)[C@H](CCc2ccc(C(F)(F)F)c(Cl)c2)NC(=O)CN(C)C(=O)[C@H](CC2CCCCC2)N(C)C(=O)CN(C)C(=O)CN(C)C1=O` [Compound 2161, (8S,11S,17S,26S,29S,33S,36S)-8-[(2-chlorophenyl)methyl]-11-[2-[3-chloro-4-(trifluoromethyl)phenyl]ethyl]-17-(cyclohexylmethyl)-9-ethyl-36-isopropyl-15,18,21,24,29,30,34,37-octamethyl-26-[(1S)-1-methylpropyl]-33-(piperidine-1-carbonyl)-6,9,12,15,18,21,24,27,30,34,37-undecazaspiro[4.33]octatriacontane-7,10,13,16,19,22,25,28,31,35,38-undecone] ([NMeA]I[Sar][Sar][NMeCha][Sar][hPhe(3-Cl-4-CF3)][NEtPhe(2-Cl)][Ac5c][NMeV][NMeD]-Piperidide; lactam N-11), the IC50 (commonly the concentration that inhibits the measured activity by half) is 480 nM. As to `CCCOC[C@H]1C(=O)N2CC[C@H]2C(=O)N(C)[C@@H](CC2CCCCC2)C(=O)N(C)CC(=O)N[C@@H](CCc2ccc(C(F)(F)F)c(Cl)c2)C(=O)N2CCC[C@H]2C(=O)NC2(CCCC2)C(=O)N(C)[C@@H](C(C)C)C(=O)N[C@H](C)CC(=O)N(C)[C@@H](CC(C)C)C(=O)N[C@@H]([C@@H](C)CC)C(=O)N1C` [Compound 852] (cyclo([Ac5c][NMeV][d(β3hA)][NMeL]I[NMeS](Propyl)[Aze][NMeCha][Sar][hPhe(3-Cl-4-CF3)]P)), the IC50 turned out to be 190 nM. `CC[C@H](C)[C@@H]1NC(=O)[C@H](C)N(C)C(=O)C[C@@H](C)N(C)C(=O)[C@H](C(C)C)N(C)C(=O)C(C)(C)N(C)C(=O)[C@@H]2CCCN2C(=O)[C@H](CCc2ccc(C(F)(F)F)c(Cl)c2)NC(=O)CN(C)C(=O)[C@H](CC2CCCCC2)N(C)C(=O)[C@@H]2CCN2C(=O)[C@H](C)N(C)C1=O` [Compound 341] (cyclo([Aze][NMeCha][Sar][hPhe(3-Cl-4-CF3)]P[NMeAib][NMeV][NMedβ3hAla][NMeA]I[NMeA])): the IC50 is 2.9 nM.

As for `CC[C@H](C)[C@@H]1NC(=O)[C@H](CC(C)C)N(C)C(=O)C[C@@H](C)NC(=O)[C@H](C2CCCC2)N(C)C(=O)C2(CCCC2)NC(=O)[C@@H]2CCCN2C(=O)[C@H](CCc2ccc(C(F)(F)F)c(Cl)c2)NC(=O)[C@@H](C)N(C)C(=O)[C@H](Cc2ccc(C(F)(F)F)cc2)N(C)C(=O)[C@@H]2CCN2C(=O)[C@H](C)N(C)C1=O` [Compound 1482] (cyclo([Ac5c][NMeGly(cPent)][d(β3hA)][NMeL]I[NMeA][Aze][NMePhe(4-CF3)][dNMeA][hPhe(3-Cl-4-CF3)]P)), the IC50 was found to be 88 nM.

As to `C#CCC[C@H]1C(=O)N[C@@H]([C@@H](C)CC)C(=O)N(C)[C@@H](C)C(=O)N2CC[C@H]2C(=O)N(C)[C@@H](Cc2ccc(I)cc2)C(=O)N(C)CC(=O)N[C@@H](CCc2ccc(C(F)(F)F)c(Cl)c2)C(=O)N2CCC[C@H]2C(=O)NC2(CCCC2)C(=O)N(C)[C@@H](C2CCCCC2)C(=O)N(C)[C@H](C)CC(=O)N1C` [Compound 961] (cyclo([Ac5c][NMeChg][NMedβ3hAla][NMeHpra]I[NMeA][Aze][NMePhe(4-I)][Sar][hPhe(3-Cl-4-CF3)]P)), the IC50 turned out to be 12 nM. As for `CC[C@H](C)[C@@H]1NC(=O)[C@H](CCC(C)C)N(C)C(=O)C[C@@H](C(=O)N2CCOCC2)N(C)C(=O)[C@H](C2CCCC2)N(C)C(=O)C2(CCCC2)NC(=O)[C@@H]2CCCN2C(=O)[C@H](CCc2ccc(C(F)(F)F)c(Cl)c2)NC(=O)CN(C)C(=O)[C@H](CC2CCCCC2)N(C)C(=O)[C@@H]2CCN2C(=O)[C@H](C)NC1=O` [Compound 1171] ([NMehLeu]IA[Aze][NMeCha][Sar][hPhe(3-Cl-4-CF3)]P[Ac5c][NMeGly(cPent)][NMeD]-Morpholide; lactam N-11), the IC50 came to 0.99 nM. For `CC[C@H](C)[C@@H]1NC(=O)[C@H](CC(C)C)N(C)C(=O)C[C@@H](C)NC(=O)[C@H](C2CCCC2)N(C)C(=O)C2(CCCC2)NC(=O)[C@@H]2CCCN2C(=O)[C@H](CCc2ccc(C(F)(F)F)c(Cl)c2)NC(=O)CN(C)C(=O)[C@H](Cc2ccc(C)cc2)N(C)C(=O)[C@@H]2CCN2C(=O)[C@H](C)NC1=O` [Compound 1331] (cyclo(A[Aze][NMePhe(4-Me)][Sar][hPhe(3-Cl-4-CF3)]P[Ac5c][NMeGly(cPent)][d(β3hA)][NMeL]I)), the IC50 turned out to be 1.1 nM. Same read-out and setting: the figure for `CC[C@H](C)[C@@H]1NC(=O)[C@H](CC(C)C)N(C)C(=O)C[C@@H](C)N(C)C(=O)[C@H](CC(C)C)NC(=O)C(C)(C)N(C)C(=O)[C@H](CC(C)C)NC(=O)[C@H](CCc2ccc(C(F)(F)F)c(Cl)c2)NC(=O)[C@@H](C)N(C)C(=O)[C@H](Cc2ccc(C)cc2)N(C)C(=O)CN(C)C(=O)CN(C)C1=O` [Compound 1384] (cyclo(I[Sar][Sar][NMePhe(4-Me)][dNMeA][hPhe(3-Cl-4-CF3)]L[NMeAib]L[NMedβ3hAla][NMeL])) is 230 nM. Same read-out and setting: the result for `CC[C@H](C)[C@@H]1NC(=O)[C@H](C)N(C)C(=O)C[C@@H](C)N(C)C(=O)[C@H](C2CCCCC2)N(C)C(=O)C(C)(C)N(C)C(=O)[C@@H]2CCCN2C(=O)[C@H](CCc2ccc(C(F)(F)F)c(Cl)c2)NC(=O)CN(C)C(=O)[C@H](CC2CCCCC2)N(C)C(=O)[C@@H]2CCN2C(=O)[C@H](C)N(C)C1=O` [Compound 2155] (cyclo([Aze][NMeCha][Sar][hPhe(3-Cl-4-CF3)]P[NMeAib][NMeChg][NMedβ3hAla][NMeA]I[NMeA])) reads 28 nM; that for `CC[C@H](C)[C@@H]1NC(=O)[C@H](C)N(C)C(=O)C[C@@H](C(=O)N(C)C)N(C)C(=O)[C@H](C(C)C)N(C)C(=O)C2(CCCC2)NC(=O)[C@H](Cc2ccccc2Cl)N(CC)C(=O)[C@H](CCc2ccc(C(F)(F)F)c(Cl)c2)NC(=O)CN(C)C(=O)[C@H](CC2CCCCC2)N(C)C(=O)CN(C)C(=O)CN(C)C1=O` [Compound 2164] ([NMeA]I[Sar][Sar][NMeCha][Sar][hPhe(3-Cl-4-CF3)][NEtPhe(2-Cl)][Ac5c][NMeV][NMeD]-NMe2; lactam N-11), 300 nM; that for `CCC[C@H]1C(=O)N[C@@H]([C@@H](C)CC)C(=O)N(C)[C@@H](C)C(=O)N2CC[C@H]2C(=O)N(C)[C@@H](CC2CCCCC2)C(=O)N(C)CC(=O)N[C@@H](CCc2ccc(C(F)(F)F)c(Cl)c2)C(=O)N2CCC[C@H]2C(=O)NC2(CCCC2)C(=O)N(C)[C@@H](C(C)C)C(=O)N[C@H](C)CC(=O)N1C` [Compound 1564] (cyclo([Ac5c][NMeV][d(β3hA)][NMeNva]I[NMeA][Aze][NMeCha][Sar][hPhe(3-Cl-4-CF3)]P)), 38 nM.
